Source: patent publication US8927033B2, “Hyperlipemia-ameliorating agent, anemia-ameliorating composition, uric-acid-level-reducing composition, and food or beverage” (Lion Corporation, priority 2009, dated 2015)

Test system: Type 2-diabetes model mice KK-Ay/Ta Jc1
Experiment: Study on hyperlipemia-ameliorating effects (plasma neutral fat, total cholesterol, free fatty acid, visceral fat, body weight)
Assay type: in vivo
Conditions: for Body weight (average g/±SD) / Neutral fat level (average mg/dL ± SD) / Free fatty acid level (average mEq/L ± SD) / Total cholesterol level (average mg/dL ± SD) / Visceral fat level (average g ± SD): 0.05% by mass in feed CE2, 5 days; for Body weight (average g/±SD) / Neutral fat level (average mg/dL ± SD): overnight fast; for Body weight (average g/±SD): control group 52.3 ± 4.2; for cholesterol level-regulating effect compared with the control group / free fatty acid level-regulating effect compared with the control group / reduction in body weight compared with the control group / reduction in the visceral fat level compared with the control group / neutral fat level-regulating effect compared with the control group: in words, 0.05% (aglycons) or 1.0% by mass (products) in feed, 5 days; for neutral fat level-regulating effect compared with the control group: Dunnett's test; for Neutral fat level (average mg/dL ± SD) / Free fatty acid level (average mEq/L ± SD) / Total cholesterol level (average mg/dL ± SD): plasma; for Neutral fat level (average mg/dL ± SD): control group 407.3 ± 20.9; for Free fatty acid level (average mEq/L ± SD): control group 1.95 ± 0.3; for Total cholesterol level (average mg/dL ± SD): control group 195.5 ± 10.7; for Visceral fat level (average g ± SD): retroperitoneal + epididymal + perirenal fat, control group 8.2 ± 1.0
Excerpt: Protopanaxatriol (PPT) (product of Funakoshi Corporation), panaxatriol (PT) (product of Funakoshi Corporation), protopanaxadiol (PPD) (product of Funakoshi Corporation) and panaxadiol (PD) (product of Funakoshi Corporation) were each added to feed CE2 (product of CLEA Japan, Inc.) so that the concentration thereof was 0.05% by mass.
Similarly, the strong acid-treated Panax notoginseng product (Production Example 1) and Panax notoginseng powder (product of MATSUURA YAKUGYO CO., LTD.) were each added to feed CE2 (product of CLEA Japan, Inc.) so that the concentration thereof was 1.0% by mass.
Feed CE2 (product of CLEA Japan, Inc.) containing no other additives was used as feed for the control group.
Type 2-diabetes model mice KK-Ay/Ta Jc1 (male, 4 weeks old, 8 mice/group, product of CLEA Japan, Inc.) were preliminarily bred for 7 days. Thereafter, they were bred for 5 days with the above-prepared feed CE2, containing no other additives or containing PPT, PT, PPD, PD, the strong acid-treated Panax notoginseng product or Panax notoginseng powder.
The mice bred for 5 days in the above-described manner were measured for the body weight after an overnight fast. The blood was collected from them. The collected blood sample was used to measure the plasma neutral-fat level with […] (product of Wako Pure Chemical Industries, Ltd.), the plasma total-cholesterol level with CHOLESTEROL E-TEST WAKO (product of Wako Pure Chemical Industries, Ltd.) and the plasma free-fatty-acid level with […] (product of Wako Pure Chemical Industries, Ltd.). In addition, retroperitoneal fat, fat surrounding the epididymis, and fat surrounding the kidney were sampled and weighed. The total mass thereof was used as the visceral fat level. The above-measured plasma neutral-fat level, plasma total-cholesterol level, plasma free-fatty-acid level, visceral fat level and body weight were verified using the Dunnett's multiple test. A p value of 0.05 or lower was considered statistically significant.

Structure (SMILES)	Body weight (average g/±SD) [g]	cholesterol level-regulating effect compared with the control group	free fatty acid level-regulating effect compared with the control group	reduction in body weight compared with the control group	reduction in the visceral fat level compared with the control group	neutral fat level-regulating effect compared with the control group	Neutral fat level (average mg/dL ± SD) [mg/dL]	Free fatty acid level (average mEq/L ± SD) [mEq/L]	Total cholesterol level (average mg/dL ± SD) [mg/dL]	Visceral fat level (average g ± SD) [g]
CC(C)=CCCC(C)(O)[C@H]1CC[C@]2(C)[C@@H]1[C@H](O)C[C@@H]1[C@@]3(C)CC[C@H](O)C(C)(C)[C@@H]3CC[C@]12C (stereo in doubt) [PPD, protopanaxadiol]	46.8 ± 2.6	significantly superior to that of the control group	significantly superior to that of the control group	significant reduction in body weight	significant reduction in the visceral fat level	significantly superior to that of the control group	151.4 ± 26.9	0.81 ± 0.08	123.2 ± 19.6	5.9 ± 1.3
CC1(C)CCC[C@](C)([C@H]2CC[C@]3(C)[C@@H]2[C@H](O)C[C@@H]2[C@@]4(C)CC[C@H](O)C(C)(C)[C@@H]4CC[C@]23C)O1 [PD, panaxadiol]	47.3 ± 1.9	significantly superior to that of the control group	significantly superior to that of the control group	significant reduction in body weight	significant reduction in the visceral fat level	significantly superior to that of the control group	180.7 ± 34.2	1.04 ± 0.12	101.5 ± 15.6	5.5 ± 1.6
CC(C)=CCC[C@](C)(O)[C@H]1CC[C@]2(C)[C@@H]1[C@H](O)C[C@@H]1[C@@]3(C)CC[C@H](O)C(C)(C)[C@@H]3[C@@H](O)C[C@]12C [PPT, Protopanaxatriol]	45.3 ± 2.2	significantly superior to that of the control group	significantly superior to that of the control group	significant reduction in body weight	significant reduction in the visceral fat level	significantly superior to that of the control group	138.5 ± 25.3	0.93 ± 0.08	128.3 ± 17.8	5.5 ± 1.3
CC1(C)CCC[C@](C)([C@H]2CC[C@]3(C)[C@@H]2[C@H](O)C[C@@H]2[C@@]4(C)CC[C@H](O)C(C)(C)[C@@H]4[C@@H](O)C[C@]23C)O1 [PT, panaxatriol]	43.9 ± 2.8	significantly superior to that of the control group	significantly superior to that of the control group	significant reduction in body weight	significant reduction in the visceral fat level	significantly superior to that of the control group	163 ± 32.8	0.84 ± 0.07	102.9 ± 16.7	–
